In patent US10597366B2, “Aryl ethers and uses thereof” (Peloton Therapeutics, Inc., priority 2013, dated 2020) one finds EC50 data, which are given here for 26 molecules.

In the first assay the test system is 786-O-Hif-Luc cells (luciferase gene driven by multiple HIF responsive elements). Nature of the assay: Luciferase Assay. Format: cell-based. As to conditions: 24 h, 786-O-Hif-Luc cells, about 24 hours; read-out: Mean Luciferease EC50. How it is done:
A pool of infected cells were then selected against 2 μg/mL of puromycin (P8833, Sigma) for 10 days followed by limited dilution to select single clones.
Each concentration was tested in triplicate. After about 24 hours, luciferase activity was determined using ONE-Glo Luciferase Assay Reagent (E6110, Promega) following the manufacturer's recommended procedure. EC50 were calculated by using Dotmatics software.
As usually defined, the EC50 is the concentration at which the effect is half-maximal. Consider `CS(=O)(=NC#N)c1ccc(Oc2cc(F)cc(C#N)c2)c2c1[C@H](O)[C@H](F)C2` (stereo partly drawn) [Compound 302, N-(((2R,3S)-7-(3-cyano-5-fluorophenoxy)-2-fluoro-3-hydroxy-2,3-dihydro-1H-inden-4-yl)(methyl)(oxo)-λ^6-sulfanylidene)cyanamide], for which the EC50 was found to be 110 nM.
`O=S(=O)(c1ccc(Oc2cncc(Cl)c2)c2c1[C@H](O)C(F)(F)C2)C(F)F` [Compound 25, (S)-4-((5-chloropyridin-3-yl)oxy)-7-((difluoromethyl)sulfonyl)-2,2-difluoro-2,3-dihydro-1H-inden-1-ol]: the EC50 was found to be 18 nM.
With `O=S(=O)(c1ccc(Oc2ccc(F)c(Cl)c2)c2c1[C@H](O)C(F)(F)C2)C(F)(F)F` [Compound 221, (S)-4-(3-Chloro-4-fluorophenoxy)-2,2-difluoro-7-((trifluoromethyl)sulfonyl)-2,3-dihydro-1H-inden-1-ol], the 50% effective concentration (EC50) was 26 nM.
For the molecule `N#Cc1cncc(Oc2ccc(S(=N)(=O)C(F)(F)F)c3c2CC(F)(F)[C@H]3O)c1` (stereo partly drawn) [Compound 314, 5-(((1S)-2,2-difluoro-1-hydroxy-7-(S-(trifluoromethyl)sulfonimidoyl)-2,3-dihydro-1H-inden-4-yl)oxy)nicotinonitrile], the EC50 worked out at 150 nM.
Still for that read-out and setting: for `CS(=O)(=O)c1ccc(Oc2cc(F)cc(C#N)c2)c(C#N)c1Cl` [Compound 152, 2-chloro-6-(3-cyano-5-fluorophenoxy)-3-(methylsulfonyl)benzonitrile] the value was 2100 nM; for `O=C1c2c(S(=O)(=O)C(F)F)ccc(Oc3ccc(F)c(F)c3)c2CC1(F)F` [Compound 195, 7-((Difluoromethyl)sulfonyl)-4-(3,4-difluorophenoxy)-2,2-difluoro-2,3-dihydro-1H-inden-1-one], 2560 nM; for `O=S(=O)(c1ccc(Oc2cncc(Cl)c2)c2c1[C@H](O)CC2)C(F)F` [Compound 3, (R)-4-((5-chloropyridin-3-yl)oxy)-7-((difluoromethyl)sulfonyl)-2,3-dihydro-1H-inden-1-ol], 960 nM.
Turning to `O=S(=O)(c1ccc(Oc2ccc(F)c(Cl)c2)c2c1C(O)CC2)C(F)(F)F` (centres unmarked) [Compound 218, 4-(3-Chloro-4-fluorophenoxy)-7-((trifluoromethyl)sulfonyl)-2,3-dihydro-1H-inden-1-ol], the 50% effective concentration (EC50) is 3500 nM.
As to `Cc1c(S(=O)(=O)C(F)F)ccc(Oc2cc(F)cc(Cl)c2)c1C#N` [Compound 32, 6-(3-Chloro-5-fluorophenoxy)-3-((difluoromethyl)sulfonyl)-2-methylbenzonitrile], the EC50 stood at 1900 nM.
For the molecule `CS(=O)(=O)c1ccc(Oc2cc(F)cc(C#N)c2)c2c1C(O)CC2` (centres unmarked) [Compound 222, 3-Fluoro-5-((1-hydroxy-7-(methylsulfonyl)-2,3-dihydro-1H-inden-4-yl)oxy)benzonitrile], the 50% effective concentration (EC50) was 1800 nM.
Same read-out and setting: the same measure for `O=S(=O)(c1ccc(Oc2cc(F)c(F)c3[nH]ncc23)c2c1C(O)C(F)(F)C2)C(F)(F)F` (centres unmarked) [Compound 261, 4-((6,7-Difluoro-1H-indazol-4-yl)oxy)-2,2-difluoro-7-((trifluoromethyl)sulfonyl)-2,3-dihydro-1H-inden-1-ol]: 1650 nM; for `O=S(=O)(c1ccc(Oc2cc(F)cc(F)c2)c2c1CCC2)C(F)F` [Compound 20, 4-((Difluoromethyl)sulfonyl)-7-(3,5-difluorophenoxy)-2,3-dihydro-1H-indene]: 1910 nM; for `CS(=O)(=O)c1ccc(Oc2cc(F)cc(C#N)c2)c(C(F)F)c1C#N` [Compound 94, 3-(3-Cyano-5-fluorophenoxy)-2-(difluoromethyl)-6-(methylsulfonyl)benzonitrile]: 760 nM.
As to `C[S+]([O-])c1ccc(Oc2cc(F)cc(C#N)c2)c2c1[C@H](O)C(F)(F)C2` (stereo partly drawn) [Compound 272, 3-[(1S)-2,2-Difluoro-1-hydroxy-7-methylsulfinyl-indan-4-yl]oxy-5-fluoro-benzonitrile], the half-maximal effective concentration (EC50) amounted to 2280 nM.
As for `O=S(=O)(c1ccc(Oc2ccc(F)c3[nH]ncc23)c2c1[C@H](O)C(F)(F)C2)C(F)(F)F` [Compound 266, (S)-2,2-difluoro-4-((7-fluoro-1H-indazol-4-yl)oxy)-7-((trifluoromethyl)sulfonyl)-2,3-dihydro-1H-inden-1-ol], the EC50 turned out to be 30 nM.
Regarding `N#Cc1cc(F)cc(Oc2ccc(S(=O)(=O)C(F)F)c(C#N)c2Cl)c1` [Compound 39, 2-Chloro-3-(3-cyano-5-fluorophenoxy)-6-((difluoromethyl)sulfonyl)benzonitrile], the EC50 is 600 nM.
Consider `N#Cc1cc(F)cc(Oc2ccc(S(=N)(=O)C(F)(F)F)c3c2CCC3O)c1` (stereo not drawn) [Compound 258, 3-Fluoro-5-((1-hydroxy-7-(S-(trifluoromethyl)sulfonimidoyl)-2,3-dihydro-1H-inden-4-yl)oxy)benzonitrile], for which the concentration for a half-maximal effect (EC50) amounted to 2100 nM.
The same measure, in the same setting: for `O=S(=O)(c1ccc(Oc2ccc(F)cc2)c2c1C(O)CC2)C(F)(F)F` (centres unmarked) [Compound 212, 4-(4-Fluorophenoxy)-7-((trifluoromethyl)sulfonyl)-2,3-dihydro-1H-inden-1-ol] the value was 1600 nM; for `O=S(=O)(c1ccc(Oc2ccc(F)c(Br)c2)c2c1[C@H](O)C(F)(F)C2)C(F)F` [Compound 194, (S)-4-(3-Bromo-4-fluorophenoxy)-7-((difluoromethyl)sulfonyl)-2,2-difluoro-2,3-dihydro-1H-inden-1-ol], 330 nM.
Still for that read-out and setting: the same measure for `Cc1c(Oc2cc(F)cc(Cl)c2)ccc(S(=O)(=O)C(F)(F)F)c1Cl` [Compound 143, 3-Chloro-1-(3-chloro-5-fluoro-phenoxy)-2-methyl-4-(trifluoromethylsulfonyl)benzene]: 1200 nM.
In the case of `N#Cc1cc(F)cc(Oc2ccc(S(=O)(=O)C(F)(F)F)c(C#N)c2Br)c1` [Compound 100, 2-Bromo-3-(3-cyano-5-fluorophenoxy)-6-((trifluoromethyl)sulfonyl)benzonitrile], the EC50 amounted to 7600 nM.
Regarding `N=S(=O)(c1ccc(Oc2cc(F)cc(Cl)c2)c(Br)c1Cl)C(F)(F)F` (centres unmarked) [Compound 75, (3-bromo-2-chloro-4-(3-chloro-5-fluorophenoxy)phenyl)(imino)(trifluoromethyl)-λ^6-sulfanone], the EC50 was found to be 8800 nM.
Same read-out and setting: for `Cc1c(S(=O)(=O)C(F)F)ccc(Oc2cc(F)cc(C#N)c2)c1C#N` [Compound 33, 6-(3-Cyano-5-fluorophenoxy)-3-((difluoromethyl)sulfonyl)-2-methylbenzonitrile] the value was 2900 nM.

Still in this assay, the particulars now being: 24 h, read-out: Mean Luciferease EC50.
With `CS(=O)(=O)c1ccc(Oc2cc(F)cc(C#N)c2)c2c1[C@H](O)C(F)(F)C2` [Compound 163, (S)-3-((2,2-Difluoro-1-hydroxy-7-(methylsulfonyl)-2,3-dihydro-1H-inden-4-yl)oxy)-5-fluorobenzonitrile], the EC50 worked out at 23 nM.
For the molecule `CS(=O)(=O)c1ccc(Oc2cc(F)cc(C#N)c2)c2c1[C@@H](O)C(F)(F)C2` [Compound 226, (R)-3-((2,2-Difluoro-1-hydroxy-7-(methylsulfonyl)-2,3-dihydro-1H-inden-4-yl)oxy)-5-fluorobenzonitrile], the EC50 turned out to be 3500 nM.
Still for that read-out and setting: for `N#Cc1cc(F)cc(Oc2ccc(S(=O)(=O)C(F)F)c3c2CC[C@H]3O)c1` [Compound 155, 3-[(1R)-7-(difluoromethylsulfonyl)-1-hydroxy-indan-4-yl]oxy-5-fluoro-benzonitrile] the value was 130 nM.
